Patent EP0934745B1, “Use of androsterone derivatives for inhibiting DNA binding of ap-1 and airway smooth muscle proliferation” (CHARLOTTE-MECKLENBURG HOSPITAL doing business as Carolinas …, priority 1998, dated 1999)

Key:
BEAS-2B cells = experiment: Interleukin-8 secretion by cultured human respiratory epithelium (ELISA); type: cell-based; conditions: 1 hr pretreatment
Experimental: J. Physiol. […] J. Physiol. […] Statistical Analysis. […] Significance was assumed at p < 0.05.
After 24 hours (for TNF stimulated cells) or 6 hours (for ROFA stimulated cells) media was collected and centrifuged to remove debris. […] Results are means ± standard errors of 4-6 experiments per treatment group. DMSO vehicle, as an antioxidant, reduces IL-8 secretion (a known effect) but BrEA inhibits much more profoundly.

Human Erythrocyte G6PDH = target: T1, Human Erythrocyte G6PDH (Homo sapiens, UniProt P11413); experiment: Inhibition of purified glucose 6-phosphate dehydrogenase activity; type: biochemical; conditions: 0.01 U/ml Type XXVI G6PDH from human erythrocytes, vs DMSO vehicle-treated controls, read-out: PERCENT INHIBITION OF GLUCOSE 6-PHOSPHATE DEHYDROGENASE ACTIVITY
T1 construct: purified G6PDH from human erythrocytes; purchased Sigma Type XXVI; host or cells: human erythrocytes (natural source)

[1] = tested on: rat tracheal smooth muscle; experiment: Proliferation of cultured airway smooth muscle (MTT reduction, cell counts); type: cell-based; conditions: for growth inhibition by direct visual count of stained cells: 10% FBS, 15,000 cells/well cultured for 24 hours (Figure 4A); for inhibition of FBS-induced cell proliferation (comparison in words): 10% FBS, 15,000 cells/well, 92-96 hours, MTT (Figures 3A, 3C)
Experimental: Polyclonal horseradish peroxidase anti-rabbit IgG was from Transduction Laboratories (Lexington, KY). M-MLV reverse transcriptase was from Life Technologies (Gaithersburg, MD). All other materials were obtained from Sigma unless specified. Measurement of Cultured Airway Smooth Muscle Proliferation. Rat tracheal smooth muscle was cultured by euthanizing rats with pentobarbital overdose and removal of their tracheas. The posterior tracheal membrane was isolated, minced and digested twice for 30 minutes at 37°C. in HBSS containing 0.2% type IV collagenase and 0.05% type IV elastase. Each enzyme digest was collected and centrifuged for 5 minutes at 500 g at room temperature. The supernatant was removed and the pellet was resuspended in DMEM supplemented with 10% FBS, nonessential amino acids, penicillin (100 U/ml), streptomycin (100 µg/ml) and amphotericin (250 ng/ml). Cells were seeded in this medium into 25-cm^2 flasks at 2 x 10^5 cells per flask and incubated in a humidified atmosphere of 5% CO2/95% air at 37°C. Upon reaching confluence, cells were detached with 0.25% trypsin-0.002% EDTA solution for passage.
Proliferation of cultured airway smooth muscle was quantitated using modification of a previously reported colorimetric method based upon metabolic reduction of the soluble yellow tetrazolium dye 3-[4,5-dimethylthiazol]-2yl-2,5-diphenyl tetrazolium bromide (MTT) to its insoluble purple formazan by the action of mitochondrial succinyl dehydrogenase. See Hirst, S.J., Barnes, P.J., and Twort, C.H.C., "Quantifying proliferation of cultured human and rabbit airway smooth muscle in response to serum and platelet derived growth factor," Am. J. Respir. Cell Mol. Biol., 7, 574-581 (1992). This assay empirically distinguishes between dead and living cells. For proliferation studies, cells were seeded into 24-well uncoated plastic plates at 15,000-50,000 cells per well and cultured with DMEM and mitogens. After 24-96 hours the medium was replaced with 1 ml/well fresh DMEM containing 100 µg/ml MTT and 0.5% FBS, and plates were incubated an additional hour MTT-containing medium was removed, cells were washed twice with 1 ml of sterile Dulbecco's modified phosphate buffered saline without Ca^2+ or Mg^2+ (DPBS), 0.5 ml dimethylsulfoxide (DMSO) was added to each well, and the absorbance of the solubilized purple formazan dye was measured at 540 nm on a Shimadzu UV160U spectrophotometer. A total of 4-6 wells was studied at each treatment condition.
The optimum concentration of FBS for use as a mitogenic stimulus was determined by incubating 15,000 cells per well with DMEM containing 0.25, 1.0, 5.0 or 10.0% FBS and MTT reduction was determined after 24, 48, 72 or 96 hours. […] After 24 hours, cells were washed twice with DPBS, fixed and permeabilized by two sequential 5 minute exposures to ice-cold methanol, stained with Giemsa-modified Wright's stain for 3 minutes and washed with DPBS. Cell counts were performed on 10 random fields at 40 power using a 0.01-cm^2 ocular grid. Cell Culture Treatments for Measurement of Airway Smooth Muscle Proliferation. The effect of dehydroepiandrosterone (DHEA) and 16α-bromoepiandrosterone (16α-BrEA) on cellular proliferation was studied in cultures stimulated with 0.5-10% FBS or 1-50 ng/ml recombinant human platelet derived growth factor (PDGF-AA). […] See, for example, the method of Le, Y. Y. , and Xu, R.B., "The molecular mechanism of the action of the pharmacological doses of glucocorticoids. Studies on the low-affinity glucocorticoid receptor," Receptor, 5, 63-69 (1995).

[2] = tested on: airway smooth muscle cells; experiment: Cytotoxicity: lactate dehydrogenase activity in cell supernatants; type: cell-based, rat; conditions: confluent cells incubated 24 hours; compared with DMSO vehicle (Figure 4B)
Experimental: To study the effect of DHEA and 16α-BrEA on activation of AP-1, a secondary response important in cellular growth and proliferation (Angel and Karin, (1991), supra) confluent monolayers of airway smooth muscle in 75-cm^2 Petri dishes were growth arrested for 24 hours in 0.5% FBS and DMEM and pretreated 2 hours with DHEA, 16α-BrEA or DMSO vehicle. Cells were then stimulated with 10% FBS in DMEM for 6 hours, nuclear protein was harvested, and electrophoretic mobility shift assays were performed as described below to determine if treatment with DHEA and 16α-BrEA impaired DNA binding of AP-1. Measurement of Cytotoxicity and Apoptosis. To assess for cytotoxicity, DHEA or 16α-BrEA were added to wells of airway smooth muscle cells previously grown to confluence in DMEM and 10% FBS. After 24 hours, media was microfuged 5 minutes and supernatant was assayed for lactate dehydrogenase activity using a commercially available assay (DG-1340K from Sigma). Cells were washed twice in DPBS and exposed to trypan blue dye (0.04% in Hanks' balanced salt solution). Cell counts were performed in five random fields using a 0.01-cm^2 ocular grid to quantitate the average number of damaged or dead cells that accumulated dye. […]

guinea pig main bronchi = experiment: Bronchial smooth muscle contraction in vitro (isolated bronchial rings, isometric tension)
Experimental: Effect on bronchial smooth muscle contraction in vitro. To study the effect of DHEA on bronchial smooth muscle in vitro, male Hartley guinea-pigs (Charles River Laboratories, Inc., Wilmington, MA) were anaesthetized with sodium pentobarbital (pentobarbital sodium (Abbott Laboratories) (200 mg/kg intraperitoneally). Then trachea and lungs were quickly removed and immersed in oxygenated Krebs-Henseleit solution (K-H) containing (mM) : 115 NaCl, 25 NaHCO3, 1.38 NaH2PO4, 2.5 KCl, 2.46 MgSO4, 1.9 CaCl2, and 5.56 dextrose, aerated with 95% O2 and 5% CO2.
The main bronchi were dissected free of loose connective tissue, under a stereo-microscope (Olympus SZH10), and bronchial rings were obtained and mounted in double jacketed organ baths filled with K-H at 37°C and continuously aerated with a 95% O2 and 5% CO2 gas mixture, which produced a pH of 7.4. The bronchial rings were connected to force displacement transducers (Grass FTO3) for continuous recording of isometric tension on paper polygraph (Gould RS3800) and allowed to equilibrate for 90 minutes. After the equilibration period 1mM acetylcholine was administered and the response monitored.
Bronchial rings were partially contracted with 3·10^-2 M KCl or 10^-5 M acetylcholine (ACh) , then the effect of DHEA was studies by increasing cumulatively its concentration at log intervals from 10^-3 to 10^-4 M and measuring the changes produced in active tension.
A concentration of 3 x 10^-2 M KCl was chosen on the basis of preliminary experiments, in which from concentration-response curves to KCl (10^-2 - 10^-1 M) it was determined that the concentration of KCl eliciting 50% of the maximum response (KCl-EC50) in the experimental set up. […] Similarly, 10^-5 M acetylcholine (ACh) was chosen as the concentration of ACh eliciting 50% of the maximum response.
Since DHEA was dissolved in dimethyl sulfoxide (DMSO), four additional rings were contracted with 3 x 10^-2 M KCl (n=5) or 10^-5 M ACh (n=5) to determine whether this vehicle produced any alteration of the active force. […] The maximum final concentration of DMSO in the organ bath was 0.15%.
Three of the strips used to study DHEA were rinsed with fresh K-H at the end of the experiment, treated with 1 mM acetylcholine, and the response monitored.
In a second set of experiments either a single dose of 10^-5 M ACh was administered or a concentration-response curve to ACh was performed in the presence or absence of 10^-4 M DHEA (administered 15 minutes before ACh). The single dose of ACh was used to measure the rate of tension development, while the concentration-response study was used to evaluate whether DHEA affected sensitivity to ACh.

T1 sequence (P11413 whole entry): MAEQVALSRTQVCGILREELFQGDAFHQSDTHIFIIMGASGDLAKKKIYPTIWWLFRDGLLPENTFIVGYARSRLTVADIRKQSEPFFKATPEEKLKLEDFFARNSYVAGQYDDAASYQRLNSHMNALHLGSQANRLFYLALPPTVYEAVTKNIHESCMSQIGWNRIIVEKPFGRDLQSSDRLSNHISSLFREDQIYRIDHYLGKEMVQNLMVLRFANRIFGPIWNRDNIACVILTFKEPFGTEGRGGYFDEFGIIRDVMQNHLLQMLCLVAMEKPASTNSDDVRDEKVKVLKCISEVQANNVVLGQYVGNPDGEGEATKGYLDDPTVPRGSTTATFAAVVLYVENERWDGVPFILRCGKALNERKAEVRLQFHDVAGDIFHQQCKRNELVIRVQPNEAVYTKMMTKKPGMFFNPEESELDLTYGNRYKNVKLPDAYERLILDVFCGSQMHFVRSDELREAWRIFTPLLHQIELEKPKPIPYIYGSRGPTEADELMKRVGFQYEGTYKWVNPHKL

SMILES	IL-8 (BEAS-2B cells; ROFA Stimulated BEAS Cells (ROFA 50 µg/ml, 6 hr), 25 µM, ROFA + DMSO 410 ± 18) [pg/mL]	IL-8 (BEAS-2B cells; TNF Stimulated BEAS Cells (TNFα 40 ng/ml, 24 hr), 2 µM, TNF + DMSO 93 ± 14) [pg/mL]	IL-8 (BEAS-2B cells; TNF Stimulated BEAS Cells (TNFα 40 ng/ml, 24 hr), 10 µM, TNF + DMSO 93 ± 14) [pg/mL]	IL-8 (BEAS-2B cells; TNF Stimulated BEAS Cells (TNFα 40 ng/ml, 24 hr), 50 µM, TNF + DMSO 93 ± 14) [pg/mL]	inhibition at 25 µM (Human Erythrocyte G6PDH; 25 µM) [%]	inhibition at 50 µM (Human Erythrocyte G6PDH; 50 µM) [%]	growth inhibition by direct visual count of stained cells [1]	inhibition of FBS-induced cell proliferation (comparison in words) [1]	IC50 ([1]; Rattus norvegicus, 48 h, read-out: 50% inhibitory concentration) [µM]	LDH activity in supernatant [2]	cell proliferation stimulated by PDGF ([1]; 50 ng/ml PDGF, 50,000 cells/well cultured for 72 hours, MTT (Figure 3B))	rate of tension development in response to 10^-5 ACh (guinea pig main bronchi; 10^-4 M DHEA administered 15 minutes before ACh, 2.27±0.82 without DHEA)	relaxation of the ACh-induced contraction (guinea pig main bronchi; 10^-4 M DHEA, bronchi partially contracted with 10^-5 M ACh, n=5) [%]	EC50 (guinea pig main bronchi; Cavia porcellus, read-out: concentration of DHEA which produced 50% relaxation of the KCl-induced contraction) [µM]	relaxation of the KCl-induced contraction (guinea pig main bronchi; maximum concentration of DHEA, bronchi partially contracted with 3 x 10^-2 M KCl, after subtraction of the reduction of force due to time-vehicle, n=6) [%]	smooth muscle functionality (response to 1 mM acetylcholine after rinsing) (guinea pig main bronchi; three strips rinsed with fresh K-H at the end of the DHEA experiment)
C[C@]12CC[C@H](O)C[C@@H]1CC[C@@H]1[C@@H]2CC[C@]2(C)C(=O)[C@H](Br)C[C@@H]12 [16α-BrEA, 16α-bromoepiandrosterone]	123 ± 5	104 ± 31	52 ± 18	27 ± 2	47 ± 6	57 ± 9	confirmed by cell counts	even more potent inhibitor of FBS-induced cell proliferation than DHEA	7.5	does not increase LDH activity						
C[C@]12CC[C@H](O)CC1=CC[C@@H]1[C@@H]2CC[C@]2(C)C(=O)CC[C@@H]12 [DHEA, dehydroepiandrosterone]							confirmed by cell counts	more active than DHEA-sulfate at high concentrations			inhibites cell proliferation	1.85±0.85	37.98±4.76	21.6	76.28±6.96	not altered
